Reference: patent US9393232B2 (BeiGene, Ltd., priority 2013, dated 2016)
Where two headings read alike, the source gives them in different places.

Assays:
[1] = molecular target: Recombinant human BRD4(1-477) (Homo sapiens (Human), UniProt O60885); test: BRD4 TR-FRET biochemical IC50 assay; format: binding; settings: tetra-acetylated histone peptide
[2] = molecular target: Recombinant human BRD2(1-473) (Homo sapiens (Human), UniProt P25440); test: BRD2 TR-FRET biochemical IC50 assay; format: binding
Chain of Recombinant human BRD2(1-473) (P25440 1-473): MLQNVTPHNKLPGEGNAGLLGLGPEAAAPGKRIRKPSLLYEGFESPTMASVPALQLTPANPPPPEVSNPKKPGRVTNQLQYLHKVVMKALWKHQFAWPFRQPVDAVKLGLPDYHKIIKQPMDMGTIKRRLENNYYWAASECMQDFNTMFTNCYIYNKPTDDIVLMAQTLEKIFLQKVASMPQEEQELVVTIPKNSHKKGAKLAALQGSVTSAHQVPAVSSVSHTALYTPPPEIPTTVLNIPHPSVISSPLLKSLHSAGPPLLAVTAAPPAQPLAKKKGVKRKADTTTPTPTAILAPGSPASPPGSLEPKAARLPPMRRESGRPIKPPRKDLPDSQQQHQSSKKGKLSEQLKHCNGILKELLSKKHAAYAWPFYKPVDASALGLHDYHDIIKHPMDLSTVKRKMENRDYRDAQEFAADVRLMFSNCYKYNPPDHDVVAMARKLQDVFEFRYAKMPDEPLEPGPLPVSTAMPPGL

[3] = molecular target: Recombinant human BRD3(1-435) (Homo sapiens (Human), UniProt Q15059); test: BRD3 TR-FRET biochemical IC50 assay; format: binding
Chain of Recombinant human BRD3(1-435) (Q15059 1-435): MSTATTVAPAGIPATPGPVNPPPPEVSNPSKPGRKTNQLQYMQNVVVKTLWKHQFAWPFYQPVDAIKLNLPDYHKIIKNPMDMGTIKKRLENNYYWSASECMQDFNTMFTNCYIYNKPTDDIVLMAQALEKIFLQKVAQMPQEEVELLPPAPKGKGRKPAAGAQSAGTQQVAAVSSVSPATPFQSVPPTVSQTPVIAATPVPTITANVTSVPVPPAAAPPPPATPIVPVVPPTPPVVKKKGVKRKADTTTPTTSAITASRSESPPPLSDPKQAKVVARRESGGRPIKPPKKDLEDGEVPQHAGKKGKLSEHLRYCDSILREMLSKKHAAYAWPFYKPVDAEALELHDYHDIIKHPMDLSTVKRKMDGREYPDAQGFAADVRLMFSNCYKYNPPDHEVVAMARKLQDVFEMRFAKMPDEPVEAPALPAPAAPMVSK

[4] = molecular target: Recombinant human BRDT(1-397) (Homo sapiens (Human), UniProt Q58F21); test: BRDT TR-FRET biochemical IC50 assay; format: binding
MV4-11 = MV4-11 (3 Days) EC50; format: cell-based
[5] = TR-FRET, tetra-acetylated histone peptide, read-out: BRD2 IC50
[6] = TR-FRET, tetra-acetylated histone peptide, read-out: BRD3 IC50
[7] = TR-FRET, tetra-acetylated histone peptide, read-out: BRDT IC50

## Cc1noc(C)c1-c1ccc2c(c1)C(O)(C1CCCCC1=O)C(=O)N2 (single isomer, unassigned) [Compound 1.30a, 5-(3,5-Dimethylisoxazol-4-yl)-3-hydroxy-3-(2-oxocyclohexyl)indolin-2-one]
[1]; TR-FRET, read-out: BRD4 IC50
  IC50: 0.07 µM
[2]; [5]
  IC50: 0.052 µM
[3]; [6]
  IC50: 0.025 µM
[4]; [7]
  IC50: 0.058 µM

## Cc1noc(C)c1-c1ccc2c(c1)C(N[C@H](C)CO)(c1ccccc1)C(=O)N2 (single isomer, unassigned) [Compound 2.10a]
[2]; [5]
  IC50: 0.024 µM
[3]; [6]
  IC50: 0.023 µM
[4]; [7]
  IC50: 0.069 µM

## Cc1noc(C)c1-c1ccc2c(c1)C(O)(c1ccsc1)C(=O)N2 (single isomer, unassigned) [Compound 4.1b, 5-(3,5-Dimethylisoxazol-4-yl)-3-hydroxy-3-(thiophen-3-yl)indolin-2-one]
MV4-11; Homo sapiens, 72 h
  EC50: 0.073 µM
[1]; BRD4 IC50, TR-FRET
  IC50: 0.034 µM
[2]
  IC50: 0.018 µM
[3]
  IC50: 0.014 µM
[4]
  IC50: 0.031 µM

## Cc1noc(C)c1-c1ccc2c(c1)C(NCC(C)O)(C1CCCCC1)C(=O)N2 (stereo in doubt) [Compound 2.22, 3-cyclohexyl-5-(3,5-dimethylisoxazol-4-yl)-3-((R)-2-hydroxypropylamino)indolin-2-one]
MV4-11
  EC50: 0.116 µM
[1]; TR-FRET, read-out: BRD4 IC50
  IC50: 0.081 µM
[2]; [5]
  IC50: 0.032 µM
[3]; [6]
  IC50: 0.023 µM
[4]; [7]
  IC50: 0.042 µM

## Cc1noc(C)c1-c1ccc2c(c1)C(O)(C1CCOCC1)C(=O)N2 (centres unmarked) [Compound 1.16, 5-(3,5-dimethylisoxazol-4-yl)-3-hydroxy-3-(tetrahydro-2H-pyran-4-yl)indolin-2-one]
[1]; TR-FRET, read-out: BRD4 IC50
  IC50: 0.63 µM
[2]; [5]
  IC50: 0.38 µM
[3]; [6]
  IC50: 0.14 µM
[4]; [7]
  IC50: 0.51 µM

## Cc1noc(C)c1-c1ccc2c(c1)C(c1ccccc1)(N1CCC[C@H](O)C1)C(=O)N2 (stereo partly drawn) [Compound 2.16, 5-(3,5-dimethylisoxazol-4-yl)-3-((S)-3-hydroxypiperidin-1-yl)-3-phenylindolin-2-one]
[2]; [5]
  IC50: 0.0096 µM
[3]; [6]
  IC50: 0.0099 µM
[4]; [7]
  IC50: 0.023 µM

## Cc1noc(C)c1-c1ccc2c(c1)C(c1ccccc1)(N1CCC[C@H](N)C1)C(=O)N2 (stereo partly drawn) [Compound 2.46, 3-((S)-3-aminopiperidin-1-yl)-5-(3,5-dimethylisoxazol-4-yl)-3-phenylindolin-2-one]
[1]; TR-FRET, read-out: BRD4 IC50
  IC50: 0.011 µM
[2]; [5]
  IC50: 0.0066 µM
[3]; [6]
  IC50: 0.0053 µM
[4]; [7]
  IC50: 0.014 µM

## Cc1noc(C)c1-c1ccc2c(c1)C(c1ccccc1)C(=O)N2 (centres unmarked) [Compound 3.1, 5-(3,5-Dimethylisoxazol-4-yl)-3-phenylindolin-2-one]
MV4-11; Homo sapiens, MV4-11, 72 h
  EC50: 0.382 µM
[1]; TR-FRET, read-out: BRD4 IC50
  IC50: 0.11 µM

## Cc1noc(C)c1-c1ccc2c(c1)C(CCCO)(c1ccccc1)C(=O)N2 (centres unmarked) [Compound 3.2, 5-(3,5-dimethylisoxazol-4-yl)-3-(3-hydroxypropyl)-3-phenylindolin-2-one]
MV4-11; Homo sapiens, MV4-11, 72 h
  EC50: 0.125 µM
[1]; TR-FRET, read-out: BRD4 IC50
  IC50: 0.052 µM

## CCOC(=O)CC1(c2ccccc2)C(=O)Nc2ccc(-c3c(C)noc3C)cc21 (centres unmarked) [Compound 3.3, Ethyl 2-(5-(3,5-dimethylisoxazol-4-yl)-2-oxo-3-phenylindolin-3-yl)acetate]
MV4-11; Homo sapiens, MV4-11, 72 h
  EC50: 0.787 µM
[1]; TR-FRET, read-out: BRD4 IC50
  IC50: 0.44 µM

## Cc1noc(C)c1-c1ccc2c(c1)C(CCO)(c1ccccc1)C(=O)N2 (centres unmarked) [Compound 3.5, 5-(3,5-Dimethylisoxazol-4-yl)-3-(2-hydroxyethyl)-3-phenylindolin-2-one]
MV4-11; Homo sapiens, MV4-11, 72 h
  EC50: 0.14 µM
[1]; TR-FRET, read-out: BRD4 IC50
  IC50: 0.12 µM

## Cc1noc(C)c1-c1ccc2c(c1)C(CCCN1CCOCC1)(c1ccccc1)C(=O)N2 (centres unmarked) [Compound 3.6, 5-(3,5-dimethylisoxazol-4-yl)-3-(3-morpholinopropyl)-3-phenylindolin-2-one]
MV4-11; Homo sapiens, MV4-11, 72 h
  EC50: 0.27 µM
[1]; TR-FRET, read-out: BRD4 IC50
  IC50: 0.1 µM

## Cc1noc(C)c1-c1ccc2c(c1)C(CCCN1CCN(C)CC1)(c1ccccc1)C(=O)N2 (centres unmarked) [Compound 3.7, 5-(3,5-Dimethylisoxazol-4-yl)-3-(3-(4-methylpiperazin-1-yl)propyl)-3-phenylindolin-2-one]
MV4-11; Homo sapiens, MV4-11, 72 h
  EC50: 0.116 µM
[1]; TR-FRET, read-out: BRD4 IC50
  IC50: 0.053 µM

## Cc1noc(C)c1-c1ccc2c(c1)C(CCCN1CCNCC1)(c1ccccc1)C(=O)N2 (centres unmarked) [Compound 3.8, 5-(3,5-Dimethylisoxazol-4-yl)-3-phenyl-3-(3-(piperazin-1-yl)propyl)indolin-2-one]
MV4-11; Homo sapiens, MV4-11, 72 h
  EC50: 0.062 µM
[1]; TR-FRET, read-out: BRD4 IC50
  IC50: 0.051 µM

## Cc1noc(C)c1-c1ccc2c(c1)C(CCCN1CCC(O)CC1)(c1ccccc1)C(=O)N2 (centres unmarked) [Compound 3.9, 5-(3,5-Dimethylisoxazol-4-yl)-3-(3-(4-hydroxypiperidin-1-yl)propyl)-3-phenylindolin-2-one]
MV4-11; Homo sapiens, MV4-11, 72 h
  EC50: 0.377 µM
[1]; TR-FRET, read-out: BRD4 IC50
  IC50: 0.12 µM

## Cc1noc(C)c1-c1ccc2c(c1)C(CCCN(C)C)(c1ccccc1)C(=O)N2 (centres unmarked) [Compound 3.10, 3-(3-(Dimethylamino)propyl)-5-(3,5-dimethylisoxazol-4-yl)-3-phenylindolin-2-one]
MV4-11; Homo sapiens, MV4-11, 72 h
  EC50: 0.49 µM
[1]; TR-FRET, read-out: BRD4 IC50
  IC50: 0.14 µM

## Cc1noc(C)c1-c1ccc2c(c1)C(O)(c1ccsc1)C(=O)N2 (centres unmarked) [Compound 4.1, 5-(3,5-Dimethylisoxazol-4-yl)-3-hydroxy-3-(thiophen-3-yl)indolin-2-one]
MV4-11; Homo sapiens, 72 h
  EC50: 0.14 µM
[1]; TR-FRET, read-out: BRD4 IC50
  IC50: 0.1 µM

## Cc1noc(C)c1-c1ccc2c(c1)C(NC(=O)CN(C)C)(c1ccccc1)C(=O)N2 (centres unmarked) [Compound 6.0, 2-(Dimethylamino)-N-(5-(3,5-dimethylisoxazol-4-yl)-2-oxo-3-phenylindolin-3-yl)acetamide]
MV4-11; Homo sapiens, MV4-11, 72 h
  EC50: 0.746 µM
[1]; TR-FRET, read-out: BRD4 IC50
  IC50: 0.32 µM
